Results: PubChem BioAssay (NCI)
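A five-concentration, 48-hour dose response in 96-well plates underlies each endpoint, interpolated linearly between surrounding concentrations. TGI marks complete inhibition of growth.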

How the values were obtained:
Assay in all cases: DTP human tumour cell line panel, 48 h
SNB-78 CNS = test system: SNB-78 CNS
HCT-116 colon = test system: HCT-116 colon
OVCAR-3 ovarian = test system: OVCAR-3 ovarian
NCI-H226 lung = test system: NCI-H226 lung
SNB-75 CNS = test system: SNB-75 CNS
HL-60(TB) leukemia = test system: HL-60(TB) leukemia
UACC-257 melanoma = test system: UACC-257 melanoma
SK-MEL-28 melanoma = test system: SK-MEL-28 melanoma
NCI-H460 lung = test system: NCI-H460 lung
IGROV1 ovarian = test system: IGROV1 ovarian
786-0 renal = test system: 786-0 renal
M19-MEL melanoma = test system: M19-MEL melanoma
SW-620 colon = test system: SW-620 colon
CCRF-CEM leukemia = test system: CCRF-CEM leukemia
HOP-62 NSCLC = test system: HOP-62 NSCLC
M14 melanoma = test system: M14 melanoma
TK-10 renal = test system: TK-10 renal
DMS 273 small cell lung = test system: DMS 273 small cell lung
K-562 leukemia = test system: K-562 leukemia
HCT-15 colon = test system: HCT-15 colon
ACHN renal = test system: ACHN renal
EKVX NSCLC = test system: EKVX NSCLC
SF-295 CNS = test system: SF-295 CNS
COLO 205 colon = test system: COLO 205 colon
DLD-1 colon = test system: DLD-1 colon
LXFL 529 NSCLC = test system: LXFL 529 NSCLC
RXF 393 renal = test system: RXF 393 renal
OVCAR-8 ovarian = test system: OVCAR-8 ovarian
SK-OV-3 ovarian = test system: SK-OV-3 ovarian
SF-268 CNS = test system: SF-268 CNS
MOLT-4 leukemia = test system: MOLT-4 leukemia
UACC-62 melanoma = test system: UACC-62 melanoma
KM12 colon = test system: KM12 colon
NCI-H522 lung = test system: NCI-H522 lung
DMS 114 small cell lung = test system: DMS 114 small cell lung
SNB-19 CNS = test system: SNB-19 CNS
A549 NSCLC = test system: A549 NSCLC
KM20L2 colon = test system: KM20L2 colon
LOX IMVI melanoma = test system: LOX IMVI melanoma
SN12C renal = test system: SN12C renal
U251 CNS = test system: U251 CNS
MALME-3M melanoma = test system: MALME-3M melanoma
UO-31 renal = test system: UO-31 renal
HT29 colon = test system: HT29 colon
NCI-H23 lung = test system: NCI-H23 lung
SF-539 CNS = test system: SF-539 CNS
RPMI-8226 leukemia = test system: RPMI-8226 leukemia
HCC-2998 colon = test system: HCC-2998 colon

Measured: TGI

O=C1CC2CC=C[C@H]3c4cc5c(cc4C(=O)N1C23)OCO5 (stereo partly drawn)
> 50 µM: all assays above
